US20240158446A1, “CYCLIC COMPOUND HAVING SELECTIVE INHIBITORY ACTION ON KRAS OVER HRAS AND NRAS” (CHUGAI SEIYAKU KABUSHIKI KAISHA, priority 2021, published 2024)

Assays:
[1] = target: GDP-bound HRAS wild-type protein (Homo sapiens, UniProt P01112); experiment: Binding to HRAS by surface plasmon resonance (SPR), Single Cycle Kinetics; conditions: SPR KD ratio HRAS/KRAS, class symbols
[2] = target: GDP-bound NRAS wild-type protein (Homo sapiens, UniProt P01111); experiment: Binding to NRAS by surface plasmon resonance (SPR), Single Cycle Kinetics; conditions: SPR KD ratio NRAS/KRAS, class symbols
Chain of GDP-bound NRAS wild-type protein (P01111 whole entry): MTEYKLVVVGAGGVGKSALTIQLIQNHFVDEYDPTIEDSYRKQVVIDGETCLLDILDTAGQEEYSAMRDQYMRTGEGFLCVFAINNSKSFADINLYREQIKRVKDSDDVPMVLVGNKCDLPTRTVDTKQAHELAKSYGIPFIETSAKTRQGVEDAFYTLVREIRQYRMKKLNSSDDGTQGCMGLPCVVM

Chain of GDP-bound HRAS wild-type protein (P01112 whole entry): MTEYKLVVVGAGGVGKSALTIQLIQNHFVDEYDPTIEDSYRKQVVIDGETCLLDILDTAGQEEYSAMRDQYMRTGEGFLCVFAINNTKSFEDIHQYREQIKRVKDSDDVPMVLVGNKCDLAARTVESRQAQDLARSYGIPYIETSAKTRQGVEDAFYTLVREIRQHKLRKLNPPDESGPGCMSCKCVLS

CCC[C@H]1C(=O)N[C@@H]([C@@H](C)CC)C(=O)N(C)CC(=O)N(C)[C@H]2C/C=C\CCN(C2=O)[C@@H](Cc2ccc(C(F)(F)F)cc2)C(=O)N(C)CC(=O)N[C@@H](CCc2cc(Cl)c(C(F)F)c(Cl)c2)C(=O)N2C[C@H](OCC)C[C@H]2C(=O)NC2(CC(C)(C)C2)C(=O)N(C)[C@@H](C2CCCC2)C(=O)N(C)[C@H](C(=O)N(C)C)CC(=O)N1C [PP2865]
HRAS/KRAS (ratio of KD value with respect to GDP-bound HRAS wild-type protein to KD value with respect to KRAS) [1]: A (a compound having 10 or more and less than 20 is denoted as A) | NRAS/KRAS (ratio of KD value with respect to GDP-bound NRAS wild-type protein to KD value with respect to KRAS) [2]: A (a compound having 10 or more and less than 20 is denoted as A)

CCC[C@H]1C(=O)N[C@@H]([C@@H](C)CC)C(=O)N(C)CC(=O)N(C)[C@H]2C/C=C\CCN(C2=O)[C@@H](Cc2ccc(C(F)(F)F)cc2)C(=O)N(C)CC(=O)N[C@@H](CCc2cc(C)c(C(F)F)c(Cl)c2)C(=O)N2C[C@H](OCC)C[C@H]2C(=O)NC2(CC(C)(C)C2)C(=O)N(C)[C@@H](C2CCCC2)C(=O)N(C)[C@H](C(=O)N(C)C)CC(=O)N1C [PP2866]
HRAS/KRAS (ratio of KD value with respect to GDP-bound HRAS wild-type protein to KD value with respect to KRAS) [1]: A (a compound having 10 or more and less than 20 is denoted as A) | NRAS/KRAS (ratio of KD value with respect to GDP-bound NRAS wild-type protein to KD value with respect to KRAS) [2]: A (a compound having 10 or more and less than 20 is denoted as A)

CCC[C@H]1C(=O)N[C@@H]([C@@H](C)CC)C(=O)N(C)CC(=O)N(C)[C@H]2C/C=C\CCN(C2=O)[C@@H](Cc2ccc(C(F)(F)F)cc2)C(=O)N(C)CC(=O)N[C@@H](CCc2cc(F)c(C(F)F)c(OC)c2)C(=O)N2C[C@H](OCC)C[C@H]2C(=O)NC2(CC(C)(C)C2)C(=O)N(C)[C@@H](C2CCCC2)C(=O)N(C)[C@H](C(=O)N(C)C)CC(=O)N1C [PP2867]
HRAS/KRAS (ratio of KD value with respect to GDP-bound HRAS wild-type protein to KD value with respect to KRAS) [1]: A (a compound having 10 or more and less than 20 is denoted as A) | NRAS/KRAS (ratio of KD value with respect to GDP-bound NRAS wild-type protein to KD value with respect to KRAS) [2]: A (a compound having 10 or more and less than 20 is denoted as A)

CCC[C@H]1C(=O)N[C@@H]([C@@H](C)CC)C(=O)N(C)CC(=O)N(C)[C@H]2C/C=C\CCN(C2=O)[C@@H](Cc2ccc(C(F)(F)F)cc2)C(=O)N(C)CC(=O)N[C@@H](CCc2ccc(C(F)F)c(OC)c2)C(=O)N2C[C@H](OCC)C[C@H]2C(=O)NC2(CC(C)(C)C2)C(=O)N(C)[C@@H](C2CCCC2)C(=O)N(C)[C@H](C(=O)N(C)C)CC(=O)N1C [PP2868]
HRAS/KRAS (ratio of KD value with respect to GDP-bound HRAS wild-type protein to KD value with respect to KRAS) [1]: A (a compound having 10 or more and less than 20 is denoted as A) | NRAS/KRAS (ratio of KD value with respect to GDP-bound NRAS wild-type protein to KD value with respect to KRAS) [2]: A (a compound having 10 or more and less than 20 is denoted as A)

CCC[C@H]1C(=O)N[C@@H]([C@@H](C)CC)C(=O)N(C)CC(=O)N(C)[C@H]2C/C=C\CCN(C2=O)[C@@H](Cc2ccc(C(F)(F)F)cc2)C(=O)N(C)CC(=O)N[C@@H](CCc2ccc(CC)c(OC)c2)C(=O)N2C[C@H](OCC)C[C@H]2C(=O)NC2(CC(C)(C)C2)C(=O)N(C)[C@@H](C2CCCC2)C(=O)N(C)[C@H](C(=O)N(C)C)CC(=O)N1C [PP2869]
HRAS/KRAS (ratio of KD value with respect to GDP-bound HRAS wild-type protein to KD value with respect to KRAS) [1]: A (a compound having 10 or more and less than 20 is denoted as A) | NRAS/KRAS (ratio of KD value with respect to GDP-bound NRAS wild-type protein to KD value with respect to KRAS) [2]: A (a compound having 10 or more and less than 20 is denoted as A)

CCC[C@H]1C(=O)N[C@@H]([C@@H](C)CC)C(=O)N(C2CC2)CC(=O)N(C)[C@H]2C/C=C\CCN(C2=O)[C@@H](Cc2ccc(C)cc2)C(=O)N(C)CC(=O)N[C@@H](CCc2ccc(C(F)(F)F)c(CC)c2)C(=O)N2C[C@H](OCC)C[C@H]2C(=O)NC2(CC(C)(C)C2)C(=O)N(C)[C@@H](C2CCCC2)C(=O)N(C)[C@H](C(=O)N(C)C)CC(=O)N1C [PP2870]
HRAS/KRAS (ratio of KD value with respect to GDP-bound HRAS wild-type protein to KD value with respect to KRAS) [1]: A (a compound having 10 or more and less than 20 is denoted as A) | NRAS/KRAS (ratio of KD value with respect to GDP-bound NRAS wild-type protein to KD value with respect to KRAS) [2]: A (a compound having 10 or more and less than 20 is denoted as A)

CCC[C@H]1C(=O)N[C@@H]([C@@H](C)CC)C(=O)N(C2CC2)CC(=O)N(C)[C@H]2C/C=C\CCN(C2=O)[C@@H](Cc2ccc(C)cc2)C(=O)N(C)CC(=O)N[C@@H](CCc2cc(F)c(Cl)c(OC)c2)C(=O)N2C[C@H](OCC)C[C@H]2C(=O)NC2(CC(C)(C)C2)C(=O)N(C)[C@@H](C2CCCC2)C(=O)N(C)[C@H](C(=O)N(C)C)CC(=O)N1C [PP2871]
HRAS/KRAS (ratio of KD value with respect to GDP-bound HRAS wild-type protein to KD value with respect to KRAS) [1]: A (a compound having 10 or more and less than 20 is denoted as A) | NRAS/KRAS (ratio of KD value with respect to GDP-bound NRAS wild-type protein to KD value with respect to KRAS) [2]: A (a compound having 10 or more and less than 20 is denoted as A)

CCC[C@H]1C(=O)N[C@@H]([C@@H](C)CC)C(=O)N(C2CC2)CC(=O)N(C)[C@H]2C/C=C\CCN(C2=O)[C@@H](Cc2ccc(C)cc2)C(=O)N(C)CC(=O)N[C@@H](CCc2cc(F)c(CC)c(OC)c2)C(=O)N2C[C@H](OCC)C[C@H]2C(=O)NC2(CC(C)(C)C2)C(=O)N(C)[C@@H](C2CCCC2)C(=O)N(C)[C@H](C(=O)N(C)C)CC(=O)N1C [PP2872]
HRAS/KRAS (ratio of KD value with respect to GDP-bound HRAS wild-type protein to KD value with respect to KRAS) [1]: A (a compound having 10 or more and less than 20 is denoted as A) | NRAS/KRAS (ratio of KD value with respect to GDP-bound NRAS wild-type protein to KD value with respect to KRAS) [2]: A (a compound having 10 or more and less than 20 is denoted as A)

CCC[C@H]1C(=O)N[C@@H]([C@@H](C)CC)C(=O)N(C2CC2)CC(=O)N(C)[C@H]2C/C=C\CCN(C2=O)[C@@H](Cc2ccc(C)cc2)C(=O)N(C)CC(=O)N[C@@H](CCc2cc(C)c(C(F)F)c(C)c2)C(=O)N2C[C@H](OCC)C[C@H]2C(=O)NC2(CC(C)(C)C2)C(=O)N(C)[C@@H](C2CCCC2)C(=O)N(C)[C@H](C(=O)N(C)C)CC(=O)N1C [PP2873]
HRAS/KRAS (ratio of KD value with respect to GDP-bound HRAS wild-type protein to KD value with respect to KRAS) [1]: A (a compound having 10 or more and less than 20 is denoted as A) | NRAS/KRAS (ratio of KD value with respect to GDP-bound NRAS wild-type protein to KD value with respect to KRAS) [2]: A (a compound having 10 or more and less than 20 is denoted as A)

CCC[C@H]1C(=O)N[C@@H]([C@@H](C)CC)C(=O)N(C2CC2)CC(=O)N(C)[C@H]2C/C=C\CCN(C2=O)[C@@H](Cc2ccc(C)cc2)C(=O)N(C)CC(=O)N[C@@H](CCc2cc(C)c(C(F)F)c(F)c2)C(=O)N2C[C@H](OCC)C[C@H]2C(=O)NC2(CC(C)(C)C2)C(=O)N(C)[C@@H](C2CCCC2)C(=O)N(C)[C@H](C(=O)N(C)C)CC(=O)N1C [PP2874]
HRAS/KRAS (ratio of KD value with respect to GDP-bound HRAS wild-type protein to KD value with respect to KRAS) [1]: A (a compound having 10 or more and less than 20 is denoted as A) | NRAS/KRAS (ratio of KD value with respect to GDP-bound NRAS wild-type protein to KD value with respect to KRAS) [2]: A (a compound having 10 or more and less than 20 is denoted as A)

CCC[C@H]1C(=O)N[C@@H]([C@@H](C)CC)C(=O)N(C2CC2)CC(=O)N(C)[C@H]2C/C=C\CCN(C2=O)[C@@H](Cc2ccc(C)cc2)C(=O)N(C)CC(=O)N[C@@H](CCc2cc(C)c(C(F)F)c(Cl)c2)C(=O)N2C[C@H](OCC)C[C@H]2C(=O)NC2(CC(C)(C)C2)C(=O)N(C)[C@@H](C2CCCC2)C(=O)N(C)[C@H](C(=O)N(C)C)CC(=O)N1C [PP2875]
HRAS/KRAS (ratio of KD value with respect to GDP-bound HRAS wild-type protein to KD value with respect to KRAS) [1]: A (a compound having 10 or more and less than 20 is denoted as A) | NRAS/KRAS (ratio of KD value with respect to GDP-bound NRAS wild-type protein to KD value with respect to KRAS) [2]: A (a compound having 10 or more and less than 20 is denoted as A)

CCC[C@H]1C(=O)N[C@@H]([C@@H](C)CC)C(=O)N(C2CC2)CC(=O)N(C)[C@H]2C/C=C\CCN(C2=O)[C@@H](Cc2ccc(C)cc2)C(=O)N(C)CC(=O)N[C@@H](CCc2cc(Cl)c(C(F)F)c(Cl)c2)C(=O)N2C[C@H](OCC)C[C@H]2C(=O)NC2(CC(C)(C)C2)C(=O)N(C)[C@@H](C2CCCC2)C(=O)N(C)[C@H](C(=O)N(C)C)CC(=O)N1C [PP2877]
HRAS/KRAS (ratio of KD value with respect to GDP-bound HRAS wild-type protein to KD value with respect to KRAS) [1]: A (a compound having 10 or more and less than 20 is denoted as A) | NRAS/KRAS (ratio of KD value with respect to GDP-bound NRAS wild-type protein to KD value with respect to KRAS) [2]: A (a compound having 10 or more and less than 20 is denoted as A)

CCC[C@H]1C(=O)N[C@@H]([C@@H](C)CC)C(=O)N(C2CC2)CC(=O)N(C)[C@H]2C/C=C\CCN(C2=O)[C@@H](Cc2ccc(C)cc2)C(=O)N(C)CC(=O)N[C@@H](CCc2cc(F)c3c(c2)CCC3)C(=O)N2C[C@H](OCC)C[C@H]2C(=O)NC2(CC(C)(C)C2)C(=O)N(C)[C@@H](C2CCCC2)C(=O)N(C)[C@H](C(=O)N(C)C)CC(=O)N1C [PP2879]
HRAS/KRAS (ratio of KD value with respect to GDP-bound HRAS wild-type protein to KD value with respect to KRAS) [1]: A (a compound having 10 or more and less than 20 is denoted as A) | NRAS/KRAS (ratio of KD value with respect to GDP-bound NRAS wild-type protein to KD value with respect to KRAS) [2]: A (a compound having 10 or more and less than 20 is denoted as A)

CCC[C@H]1C(=O)N[C@@H]([C@@H](C)CC)C(=O)N(C2CC2)CC(=O)N(C)[C@H]2C/C=C\CCN(C2=O)[C@@H](Cc2ccc(C)cc2)C(=O)N(C)CC(=O)N[C@@H](CCc2cc(F)c3c(c2)OCC3)C(=O)N2C[C@H](OCC)C[C@H]2C(=O)NC2(CC(C)(C)C2)C(=O)N(C)[C@@H](C2CCCC2)C(=O)N(C)[C@H](C(=O)N(C)C)CC(=O)N1C [PP2880]
HRAS/KRAS (ratio of KD value with respect to GDP-bound HRAS wild-type protein to KD value with respect to KRAS) [1]: A (a compound having 10 or more and less than 20 is denoted as A) | NRAS/KRAS (ratio of KD value with respect to GDP-bound NRAS wild-type protein to KD value with respect to KRAS) [2]: A (a compound having 10 or more and less than 20 is denoted as A)

CCC[C@H]1C(=O)N[C@@H]([C@@H](C)CC)C(=O)N(C2CC2)CC(=O)N(C)[C@H]2C/C=C\CCN(C2=O)[C@@H](Cc2ccc(C)cc2)C(=O)N(C)CC(=O)N[C@@H](CCc2ccc(C(F)(F)F)c(C3CC3)c2)C(=O)N2C[C@H](OCC)C[C@H]2C(=O)NC2(CC(C)(C)C2)C(=O)N(C)[C@@H](C2CCCC2)C(=O)N(C)[C@H](C(=O)N(C)C)CC(=O)N1C [PP2881]
HRAS/KRAS (ratio of KD value with respect to GDP-bound HRAS wild-type protein to KD value with respect to KRAS) [1]: A (a compound having 10 or more and less than 20 is denoted as A) | NRAS/KRAS (ratio of KD value with respect to GDP-bound NRAS wild-type protein to KD value with respect to KRAS) [2]: A (a compound having 10 or more and less than 20 is denoted as A)
